# In patent EP0467099A2, “Substituted acrylophenons” (BAYER AG, priority 1990, dated 1992):
# Legend:
# Testpflanzen [1] = assay: Post-emergence test (herbicidal damage rating); type: in vivo; conditions: plants 5 - 15 cm sprayed, rated after three weeks, result in words only; for Wirksamkeit (Schädigungsgrad der Pflanzen): compared with reference 2-[2-(4,6-Dimethoxy)-pyrimidinylthio]-benzoesäuremethylester (EP 223406/Bsp. 11); for Nutzpflanzenselektivität: crop selectivity compared with reference 2-[2-(4,6-Dimethoxy)-pyrimidinylthio]-benzoesäuremethylester (EP 223406/Bsp. 11)
# Excerpt: Lösungsmittel: 5 Gewichtsteile Aceton
# Emulgator: 1 Gewichtsteil Alkylarylpolyglykolether
# (§1) Zur Herstellung einer zweckmäßigen Wirkstoffzubereitung vermischt man 1 Gewichtsteil Wirkstoff mit der angegebenen Menge Lösungsmittel, gibt die angegebene Menge Emulgator zu und verdünnt das Konzentrat mit Wasser auf die gewünschte Konzentration.
# Mit der Wirkstoffzubereitung spritzt man Testpflanzen, welche eine Höhe von 5 - 15 cm haben, so, daß die jeweils gewünschten Wirkstoffmengen pro Flächeneinheit ausgebracht werden. Die Konzentration der Spritzbrühe wird so gewählt, daß in 1000 I Wasser/ha die jeweils gewünschten Wirkstoffmengen ausgebracht werden. Nach drei Wochen wird der Schädigungsgrad der Pflanzen bonitiert in % Schädigung im Vergleich zur Entwicklung der unbehandelten Kontrolle.
# Es bedeuten: • 0 % = keine Wirkung (wie unbehandelte Kontrolle) • 100 % = totale Vernichtung
# Testpflanzen [2] = assay: Pre-emergence test (herbicidal damage rating); type: in vivo; conditions: seeds watered 24 h after sowing, rated after three weeks, compared with reference 2-[2-(4,6-Dimethoxy)-pyrimidinylthio]-benzoesäuremethylester (EP 223406/Bsp. 11), result in words only
# Excerpt: Lösungsmittel: 5 Gewichtsteile Aceton Emulgator: 1 Gewichtsteil Alkylarylpolyglykolether
# as §1
# Samen der Testpflanzen werden in normalen Boden ausgesät und nach 24 Stunden mit der Wirkstoffzubereitung begossen. Dabei hält man die Wassermenge pro Flächeneinheit zweckmäßigerweise konstant. Die Wirkstoffkonzentration in der Zubereitung spielt keine Rolle, entscheidend ist nur die Aufwandmenge des Wirkstoffs pro Flächeneinheit. Nach drei Wochen wird der Schädigungsgrad der Pflanzen bonitiert in % Schädigung im Vergleich zur Entwicklung der unbehandelten Kontrolle. Es bedeuten: • 0 % = keine Wirkung (wie unbehandelte Kontrolle) • 100 % = totale Vernichtung
Structure (SMILES),Wirksamkeit (Schädigungsgrad der Pflanzen) (Testpflanzen [1]),Nutzpflanzenselektivität (Testpflanzen [1]),Wirksamkeit (Schädigungsgrad der Pflanzen) (Testpflanzen [2])
"COc1cc(OC)nc(Oc2ccccc2C(=O)C=CN2CCCCCC2)n1 [Beispiel 1, 3-(1-Hexahydroazepino)-1-{2-[2-(4,6-dimethoxy)-pyrimidinyloxy]-phenyl}-prop-2-en-1-on]",deutliche Überlegenheit,deutliche Überlegenheit,deutliche Überlegenheit
"COc1cc(OC)nc(Oc2ccccc2C(=O)C(C)=CN(C)C)n1 [Beispiel 2, 3-Dimethylamino-2-methyl-1-{2-[2-(4,6-dimethoxy)-pyrimidinyloxy]-phenyl}-prop-2-en-1-on]",deutliche Überlegenheit,deutliche Überlegenheit,–
"COc1cc(OC)nc(Oc2ccccc2C(=O)C=P(c2ccccc2)(c2ccccc2)c2ccccc2)n1 [Beispiel 3, {2-[2-(4,6-Dimethoxy)-pyrimidinyloxy]-benzoyl}-methylentriphenylphosphoran]",deutliche Überlegenheit,deutliche Überlegenheit,–
